# Reference: ChEMBL document CHEMBL1201862, “PubChem BioAssay data set” (2004)
#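 These data come from cells grown in 96-well plates and exposed to compound for 48 hours at five concentrations. The concentration for 50% growth inhibition is given as GI50.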 Activity calls are given as the source filed them. No stated cut-off is given here; in the data, active = GI50 up to about 1.1 µM and inactive = higher.
# Experiments:
# Test in all cases: growth of human tumour cells (NCI), 48 h
# MCF7 = system: MCF7
# SR = system: SR
# SK-MEL-5 = system: SK-MEL-5
# EKVX = system: EKVX
# IGROV-1 = system: IGROV-1
# UACC-257 = system: UACC-257
# NCI-H226 = system: NCI-H226
# PC-3 = system: PC-3
# RPMI-8226 = system: RPMI-8226
# SF-268 = system: SF-268
# SNB-75 = system: SNB-75
# OVCAR-5 = system: OVCAR-5
# HOP-62 = system: HOP-62
# UO-31 = system: UO-31
# MDA-MB-231 = system: MDA-MB-231
# A498 = system: A498
# NCI-H522 = system: NCI-H522
# T47D = system: T47D
# HT-29 = system: HT-29
# HOP-92 = system: HOP-92
SMILES,GI50 (MCF7),GI50 (SR),GI50 (SK-MEL-5),GI50 (EKVX),GI50 (IGROV-1),GI50 (UACC-257),GI50 (NCI-H226),GI50 (PC-3),GI50 (RPMI-8226),GI50 (SF-268),GI50 (SNB-75),GI50 (OVCAR-5),GI50 (HOP-62),GI50 (UO-31),GI50 (MDA-MB-231),GI50 (A498),GI50 (NCI-H522),GI50 (T47D),GI50 (HT-29),GI50 (HOP-92)
COc1cc(C)c(C2NC(=O)c3ccccc3N2)cc1C (centres undefined),0.957 µM (active),0.0364 µM (active),0.135 µM (active),1.12 µM (inactive),0.472 µM (active),0.47 µM (active),0.652 µM (active),0.265 µM (active),0.0931 µM (active),0.518 µM (active),0.0543 µM (active),0.75 µM (active),1.36 µM (inactive),0.468 µM (active),0.968 µM (active),0.312 µM (active),0.254 µM (active),0.447 µM (active),0.321 µM (active),
Cc1ccc(C(=O)Cc2nc3ncccc3[nH]c2=O)cc1,49.9 µM (inactive),48.5 µM (inactive),40.8 µM (inactive),33.2 µM (inactive),37.2 µM (inactive),40.6 µM (inactive),24.9 µM (inactive),43.9 µM (inactive),59 µM (inactive),41.6 µM (inactive),,81.5 µM (inactive),26 µM (inactive),32.1 µM (inactive),24.9 µM (inactive),> 100 µM (inactive),48.3 µM (inactive),45.5 µM (inactive),59.6 µM (inactive),14.6 µM (inactive)
Cc1c(/C=N/NC(=S)Nc2ccccc2Cl)c(=O)n(-c2ccccc2)n1C,46.5 µM (inactive),43.8 µM (inactive),32.7 µM (inactive),45.5 µM (inactive),40.3 µM (inactive),34.2 µM (inactive),68.5 µM (inactive),43 µM (inactive),48.9 µM (inactive),43.8 µM (inactive),25.9 µM (inactive),> 100 µM (inactive),22.7 µM (inactive),15.1 µM (inactive),14.9 µM (inactive),30.4 µM (inactive),22.5 µM (inactive),13 µM (inactive),29.4 µM (inactive),
O=C(O)[C@H](CCC[C@H]1C(=O)O[C@H](c2ccccc2)[C@H](c2ccccc2)N1C(=O)OCc1ccccc1)N[C@@H](c1ccccc1)[C@H](O)c1ccccc1,28.3 µM (inactive),20.7 µM (inactive),18.5 µM (inactive),38.6 µM (inactive),42.8 µM (inactive),39.7 µM (inactive),,37.1 µM (inactive),22.4 µM (inactive),33.7 µM (inactive),17 µM (inactive),38.4 µM (inactive),19 µM (inactive),> 100 µM (inactive),17.7 µM (inactive),28 µM (inactive),15.5 µM (inactive),43.3 µM (inactive),28.6 µM (inactive),22.3 µM (inactive)
OC1(C2(c3ccc(Cl)cc3)CCCC2)c2ccccc2C2=NCCN21 (centres undefined),17.5 µM (inactive),18.1 µM (inactive),12.4 µM (inactive),16.9 µM (inactive),12.9 µM (inactive),14.2 µM (inactive),17.1 µM (inactive),11.9 µM (inactive),,17.5 µM (inactive),3.83 µM (inactive),15.8 µM (inactive),17.4 µM (inactive),11.7 µM (inactive),14.8 µM (inactive),15.7 µM (inactive),16.2 µM (inactive),6.43 µM (inactive),10.8 µM (inactive),13.4 µM (inactive)
COC(=O)c1sc2c(Cl)c(Cl)sc2c1Cl,50.5 µM (inactive),> 100 µM (inactive),> 100 µM (inactive),> 100 µM (inactive),> 100 µM (inactive),> 100 µM (inactive),> 100 µM (inactive),> 100 µM (inactive),,> 100 µM (inactive),> 100 µM (inactive),> 100 µM (inactive),30.7 µM (inactive),> 100 µM (inactive),> 100 µM (inactive),> 100 µM (inactive),> 100 µM (inactive),> 100 µM (inactive),> 100 µM (inactive),> 100 µM (inactive)
CCOC(=O)CC1c2ccc(O)cc2OC(=O)C1c1ccc([N+](=O)[O-])cc1 (centres undefined),14.8 µM (inactive),31.8 µM (inactive),15.4 µM (inactive),39.7 µM (inactive),21.5 µM (inactive),28.8 µM (inactive),14.2 µM (inactive),22.5 µM (inactive),,40 µM (inactive),23.9 µM (inactive),58.6 µM (inactive),20.2 µM (inactive),,18.5 µM (inactive),25.6 µM (inactive),18.6 µM (inactive),15.8 µM (inactive),35.2 µM (inactive),20.4 µM (inactive)
COc1cccc(C23CCN(C)C(CC(O)C2)C3)c1OC (centres undefined),> 100 µM (inactive),> 100 µM (inactive),> 100 µM (inactive),> 100 µM (inactive),> 100 µM (inactive),> 100 µM (inactive),> 100 µM (inactive),> 100 µM (inactive),> 100 µM (inactive),> 100 µM (inactive),,> 100 µM (inactive),> 100 µM (inactive),> 100 µM (inactive),> 100 µM (inactive),> 100 µM (inactive),> 100 µM (inactive),> 100 µM (inactive),> 100 µM (inactive),> 100 µM (inactive)
Cc1nc(C)c(N2CCN(C(=O)O)CC2)c(O)n1,> 100 µM (inactive),> 100 µM (inactive),> 100 µM (inactive),> 100 µM (inactive),> 100 µM (inactive),> 100 µM (inactive),> 100 µM (inactive),> 100 µM (inactive),> 100 µM (inactive),> 100 µM (inactive),,,> 100 µM (inactive),> 100 µM (inactive),> 100 µM (inactive),> 100 µM (inactive),> 100 µM (inactive),> 100 µM (inactive),> 100 µM (inactive),> 100 µM (inactive)
O=C(O)CC1OCC=C2C[N+]3([O-])CCC45c6ccccc6NC4C1C2CC53 (centres undefined),> 100 µM (inactive),> 100 µM (inactive),> 100 µM (inactive),> 100 µM (inactive),> 100 µM (inactive),> 100 µM (inactive),> 100 µM (inactive),> 100 µM (inactive),> 100 µM (inactive),> 100 µM (inactive),,> 100 µM (inactive),> 100 µM (inactive),> 100 µM (inactive),> 100 µM (inactive),> 100 µM (inactive),> 100 µM (inactive),> 100 µM (inactive),> 100 µM (inactive),> 100 µM (inactive)
O=C(CC(C(=O)c1ccc(F)cc1)c1ccsc1)c1cccs1 (centres undefined),82.2 µM (inactive),39.4 µM (inactive),62.4 µM (inactive),68.9 µM (inactive),> 100 µM (inactive),70.3 µM (inactive),58.1 µM (inactive),57.9 µM (inactive),37.6 µM (inactive),> 100 µM (inactive),94 µM (inactive),> 100 µM (inactive),> 100 µM (inactive),25.2 µM (inactive),> 100 µM (inactive),> 100 µM (inactive),,26.7 µM (inactive),59.2 µM (inactive),
Cc1ccc(-c2cc(-c3ccccc3)nc(N)n2)c(O)c1,58.1 µM (inactive),0.227 µM (active),6.46 µM (inactive),,,> 100 µM (inactive),,> 32.9 µM (inactive),3.06 µM (inactive),> 100 µM (inactive),,> 100 µM (inactive),27.6 µM (inactive),> 100 µM (inactive),> 100 µM (inactive),> 90.6 µM (inactive),5.4 µM (inactive),> 100 µM (inactive),> 100 µM (inactive),> 64.1 µM (inactive)
CC(C)(C)c1cc(-c2cc(C(C)(C)C)[nH]n2)[nH]n1,> 100 µM (inactive),39.1 µM (inactive),> 100 µM (inactive),> 100 µM (inactive),> 100 µM (inactive),> 100 µM (inactive),> 100 µM (inactive),> 100 µM (inactive),> 100 µM (inactive),> 100 µM (inactive),,> 100 µM (inactive),> 100 µM (inactive),> 100 µM (inactive),> 100 µM (inactive),> 100 µM (inactive),> 100 µM (inactive),> 100 µM (inactive),> 100 µM (inactive),> 100 µM (inactive)
COc1ccc(C2SC(C)C(=O)N2c2nc(-c3nc(-c4ccc(Cl)cc4)cs3)cs2)cc1 (centres undefined),> 100 µM (inactive),> 100 µM (inactive),> 100 µM (inactive),> 100 µM (inactive),> 100 µM (inactive),> 100 µM (inactive),> 100 µM (inactive),66.8 µM (inactive),> 100 µM (inactive),> 100 µM (inactive),> 100 µM (inactive),> 100 µM (inactive),> 100 µM (inactive),> 100 µM (inactive),> 100 µM (inactive),,> 100 µM (inactive),46.1 µM (inactive),> 100 µM (inactive),> 100 µM (inactive)
CN(Cc1cnc2nc(N)nc(N)c2n1)c1ccc(C(=O)NC(CCC(=O)NC(P(=O)(O)O)P(=O)(O)O)C(=O)O)cc1 (centres undefined),39.8 µM (inactive),9.06 µM (inactive),45.5 µM (inactive),> 100 µM (inactive),36.7 µM (inactive),99.1 µM (inactive),> 100 µM (inactive),5.62 µM (inactive),52.4 µM (inactive),20.3 µM (inactive),> 100 µM (inactive),45.8 µM (inactive),59.8 µM (inactive),78.2 µM (inactive),> 100 µM (inactive),,29 µM (inactive),26.3 µM (inactive),6.47 µM (inactive),> 100 µM (inactive)
